Experimental data published in article PMC9618858, “β-Carboline dimers inhibit the tumor proliferation by the cell cycle arrest of sarcoma through intercalating to Cyclin-A2” (Frontiers in Immunology, 2022).

Biological target: T1, Cyclin-A2 (CCNA2) (Homo sapiens, UniProt P20248)
T1 construct: recombinant human CCNA2 (rCCNA2), GST-tagged expression in BL21 (DE3), tag cleaved
Assay: ITC with purified CCNA2; supported by CETSA in MG-63 lysate and co-IP (blocks CCNA2-CDK2)
Format: binding

T1 sequence (P20248 whole entry): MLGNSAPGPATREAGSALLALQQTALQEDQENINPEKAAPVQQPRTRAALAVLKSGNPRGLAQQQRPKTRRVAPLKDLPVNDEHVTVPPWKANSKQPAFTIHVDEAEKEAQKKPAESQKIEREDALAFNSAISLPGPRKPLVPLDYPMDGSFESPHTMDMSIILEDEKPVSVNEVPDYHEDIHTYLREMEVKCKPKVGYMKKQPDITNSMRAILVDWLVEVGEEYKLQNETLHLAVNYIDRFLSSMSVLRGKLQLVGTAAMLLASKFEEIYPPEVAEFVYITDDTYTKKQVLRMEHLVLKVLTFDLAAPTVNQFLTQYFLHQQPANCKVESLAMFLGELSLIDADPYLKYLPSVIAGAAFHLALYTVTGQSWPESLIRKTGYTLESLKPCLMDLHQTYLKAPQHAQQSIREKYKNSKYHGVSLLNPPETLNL

Cc1ccccc1Cn1c2ccccc2c2cc(C(=O)OCCCCCOC(=O)c3cc4c5ccccc5n(Cc5ccccc5C)c4cn3)ncc21 [Comp1]
Kd: 2900 µM
